Patent publication US8754222B2, “Process for preparing modulators of cystic fibrosis transmembrane conductance regulator” (Vertex Pharmaceuticals Incorporated, priority 2009, dated 2014)
pEC50: −log10 of the molar value.

Target: T1, ΔF508-CFTR (Homo sapiens, UniProt P13569, DEL508-508)
T1 construct: expressed in transfected cells; host or cells: NIH3T3 mouse fibroblasts, stably expressing, temperature-corrected at 27 °C
Test: Membrane potential optical assay, identification of potentiator compounds
Assay type: cell-based
Conditions: assay not specified; ΔF508-CFTR potentiation, NIH 3T3 cells
Source text: Membrane Potential Optical Methods for Assaying ΔF508-CFTR Modulation Properties of Compounds
The assay utilizes fluorescent voltage sensing dyes to measure changes in membrane potential using a fluorescent plate reader (e.g., FLIPR III, Molecular Devices, Inc.) as a readout for increase in functional ΔF508-CFTR in NIH 3T3 cells. The driving force for the response is the creation of a chloride ion gradient in conjunction with channel activation by a single liquid addition step after the cells have previously been treated with compounds and subsequently loaded with a voltage sensing dye.
Identification of Potentiator Compounds
To identify potentiators of ΔF508-CFTR, a double-addition HTS assay format was developed. This HTS assay utilizes fluorescent voltage sensing dyes to measure changes in membrane potential on the FLIPR III as a measurement for increase in gating (conductance) of ΔF508 CFTR in temperature-corrected ΔF508 CFTR NIH 3T3 cells. The driving force for the response is a ion gradient in conjunction with channel activation with forskolin in a single liquid addition step using a fluorescent plate reader such as FLIPR III after the cells have previously been treated with potentiator compounds (or DMSO vehicle control) and subsequently loaded with a redistribution dye.
Bath Solution #1: (in mM) NaCl 160, KCl 4.5, CaCl2 2, MgCl2 1, HEPES 10, pH 7.4 with NaOH. […]

T1 sequence (P13569 with tags, fused parts or gaps DEL508-508): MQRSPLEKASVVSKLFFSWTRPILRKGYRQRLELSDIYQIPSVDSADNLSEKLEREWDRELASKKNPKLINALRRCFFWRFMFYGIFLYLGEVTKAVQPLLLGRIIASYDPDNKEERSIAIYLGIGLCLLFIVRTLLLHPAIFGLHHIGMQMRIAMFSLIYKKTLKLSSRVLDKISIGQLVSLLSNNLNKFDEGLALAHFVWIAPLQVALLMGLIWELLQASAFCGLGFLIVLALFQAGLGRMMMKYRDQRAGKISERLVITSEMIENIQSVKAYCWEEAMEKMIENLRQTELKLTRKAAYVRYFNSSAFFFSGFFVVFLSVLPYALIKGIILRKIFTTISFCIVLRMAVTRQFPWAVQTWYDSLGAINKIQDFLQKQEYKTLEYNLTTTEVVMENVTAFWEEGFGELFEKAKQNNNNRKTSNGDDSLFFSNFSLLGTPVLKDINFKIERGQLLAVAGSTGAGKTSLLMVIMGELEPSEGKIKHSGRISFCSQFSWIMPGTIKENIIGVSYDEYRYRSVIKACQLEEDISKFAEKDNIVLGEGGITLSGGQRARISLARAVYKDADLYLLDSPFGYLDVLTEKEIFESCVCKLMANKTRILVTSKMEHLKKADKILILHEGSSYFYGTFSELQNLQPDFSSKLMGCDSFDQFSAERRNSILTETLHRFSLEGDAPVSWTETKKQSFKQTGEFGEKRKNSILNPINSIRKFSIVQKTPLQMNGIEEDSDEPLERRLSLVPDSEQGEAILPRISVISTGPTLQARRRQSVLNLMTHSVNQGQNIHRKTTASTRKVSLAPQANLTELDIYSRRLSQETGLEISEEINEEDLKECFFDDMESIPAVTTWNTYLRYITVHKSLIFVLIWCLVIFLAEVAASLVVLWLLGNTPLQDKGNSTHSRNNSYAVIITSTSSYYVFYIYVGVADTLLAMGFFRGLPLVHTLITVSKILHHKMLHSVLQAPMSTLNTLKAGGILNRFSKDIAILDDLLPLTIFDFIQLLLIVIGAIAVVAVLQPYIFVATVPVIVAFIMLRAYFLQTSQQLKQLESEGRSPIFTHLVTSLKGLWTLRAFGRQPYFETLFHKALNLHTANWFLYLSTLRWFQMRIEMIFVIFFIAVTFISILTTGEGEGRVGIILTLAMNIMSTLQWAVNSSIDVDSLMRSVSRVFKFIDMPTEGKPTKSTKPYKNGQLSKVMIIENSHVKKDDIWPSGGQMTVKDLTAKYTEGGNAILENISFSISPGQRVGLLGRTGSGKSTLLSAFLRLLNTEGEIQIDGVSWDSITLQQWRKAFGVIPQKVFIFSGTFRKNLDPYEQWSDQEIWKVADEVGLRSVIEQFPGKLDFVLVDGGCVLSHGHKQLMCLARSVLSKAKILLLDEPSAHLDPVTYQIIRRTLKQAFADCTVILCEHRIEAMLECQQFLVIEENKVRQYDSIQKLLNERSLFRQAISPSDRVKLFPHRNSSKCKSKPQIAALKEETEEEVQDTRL

Structure (SMILES): O=C(Nc1ccc(N2C3CCC2CC3)cc1C(F)(F)F)c1c[nH]c2cccc(C(F)(F)F)c2c1=O [Compound 1 Form A, N-(4-(7-azabicyclo[2.2.1]heptan-7-yl)-2-(trifluoromethyl)phenyl)-4-oxo-5-(trifluoromethyl)-1,4-dihydroquinoline-3-carboxamide]
- pEC50: > 5.70
